# Measurements as given in patent US6958335B2, “Treatment of gastrointestinal stromal tumors” (Novartis AG, priority 2000, dated 2005).
# Where two headings read alike, the source gives them in different places.
# Key:
# [1] = during therapy
# Method: (§1) Treatment toxicity was assessed at follow-up visits performed at 2 to 4 week intervals, and blood cell counts and blood chemistry were analysed at 1 to 2 week intervals. Treatment response was assessed with dynamic MRI scans, ^18F-fluorodeoxyglucose (FDG) positron emission tomography (PET) examinations, and cutting needle biopsies from a liver metastasis. Dynamic MRI was performed with a 1.5T Magnetom Vision (Siemens, Erlangen, Germany). Fat-suppressed T1-weighted breathhold gradient echo transaxial images were obtained both before and after intravenous contrast medium injection (0.1 mmol/kg gadolinium-DOTA; Dotarem, Guerbet, France). The enhancement pattern was established using sequential imaging over 5 minutes, and delayed scanning was performed after 10 minutes.
# [2] = system: GIST
# Text: At the priority date of the present patent application a clinical study with more GIST patients was being conducted analogously to the study described in Example 1.
# [3] = system: unresectable metastatic GIST; settings: for total tumour size (tumour area of 8 large measurable liver metastases, MRI): 112.5 cm^2 before treatment
# Method: Seven cycles of IADIC (ifosfamide, doxoribicin, and dacarbazine) were given from November 1998 to March 1999 for multiple liver metastases. […] They were subsequently treated between April 1999 and February 2000 with an experimental regimen consisting of thalidomide 400 mg once daily and interferon alpha 0.9 MU T.I.D. s.c. to control persisting liver disease.
# as §1, with “minutes. FDG PET was done using an 8-ring ECAT 931/08 device (Siemens-CTI Corp. Knoxville, Tenn.). The FDG dose given varied between 355 to 375 MBq.” for “minutes.”
# [4] = system: unresectable and/or metastatic malignant gastrointestinal stromal tumors (GIST)
# Method: A phase 2, open-label, randomized multinational study was conducted in patients with unresectable and/or metastatic malignant gastrointestinal stromal tumors (GIST). […] The primary evidence of efficacy was based on objective response rates, and the time to response, duration of response, time to treatment failure and survival were also evaluated. Tumors were required to be measurable in at least one site of disease, and response characterization based on Southwestern Oncology Group (SWOG) criteria.
# [5] = among the 61 patients with stable disease
compound,measurement,setting,value
CS(=O)(=O)O.Cc1ccc(NC(=O)c2ccc(CN3CCN(C)CC3)cc2)cc1Nc1nccc(-c2cccnc2)n1 [SALT I],"drug-related liver, renal or cardiac toxicity",[1],"No drug-related liver, renal or cardiac toxicity was observed"
same,reduction in patients with partial response,[2]; 8 patients,50-66%
same,reduction in patients with stable disease,[2]; 18 patients,4-42%
same,patients with partial response,[2]; of 27 evaluated patients,8 patients
same,patients with stable disease,[2]; of 27 evaluated patients,18 patients
same,patients with progression of the disease,"[2]; of 27 evaluated patients, study not finished",1 patient
same,metabolic response in tumour (PET imaging),"[3]; 400 mg daily orally, within 1 month",complete metabolic response
same,decrease of total tumour size (MRI),[3]; 1 month,52%
same,"total tumour size (tumour area of 8 large measurable liver metastases, MRI)",[3]; 1 month,54.3 cm^2
same,decrease of total tumour size (MRI),[3]; 2 months,63%
same,"total tumour size (tumour area of 8 large measurable liver metastases, MRI)",[3]; 2 months,41.5 cm^2
same,decrease of total tumour size (MRI),[3]; 2 weeks after starting,41%
same,"total tumour size (tumour area of 8 large measurable liver metastases, MRI)",[3]; 2 weeks after starting,66.9 cm^2
same,decrease of total tumour size (MRI),[3]; 4 months,68%
same,"total tumour size (tumour area of 8 large measurable liver metastases, MRI)",[3]; 4 months,36.2 cm^2
same,decrease of total tumour size (MRI),[3]; 5.5 months,71%
same,"total tumour size (tumour area of 8 large measurable liver metastases, MRI)",[3]; 5.5 months,32.5 cm^2
same,FDG uptake in PET,[3]; PET 1 month after starting,no abnormal FDG uptake was present in the liver
same,FDG uptake in PET at the sites of liver metastases,[3]; PET 2 months after starting,less FGD uptake than the surrounding liver parenchyma
same,World Health Organization (WHO) performance status,"[3]; during therapy, improved from 1 before",0
same,new lesions,[3]; follow-up MRI on treatment,No new lesions appeared
same,liver metastases that disappeared,"[3]; of the 28 liver metastases, follow-up MRI on treatment",6
same,pattern of contrast enhancement of tumour by dynamic MRI,[3]; within 2 weeks after starting,decreased dramatically
same,Best response: Complete response,[4]; 400 mg (N = 73),0 n (%)
same,Best response: Not evaluable,[4]; 400 mg (N = 73),3 (4.1) n (%)
same,Best response: Partial response,[4]; 400 mg (N = 73),27 (37.0) n (%)
same,Best response: Progressive disease,[4]; 400 mg (N = 73),10 (13.7) n (%)
same,Best response: Stable disease,[4]; 400 mg (N = 73),33 (45.2) n (%)
same,Best response: Unknown,[4]; 400 mg (N = 73),0 n (%)
same,differences between dose groups in efficacy parameters,[4]; 400 mg vs 600 mg,could not be observed
same,Best response: Complete response,[4]; 600 mg (N = 74),0 n (%)
same,Best response: Not evaluable,[4]; 600 mg (N = 74),4 (5.4) n (%)
same,Best response: Partial response,[4]; 600 mg (N = 74),32 (43.2) n (%)
same,Best response: Progressive disease,[4]; 600 mg (N = 74),8 (10.8) n (%)
same,Best response: Stable disease,[4]; 600 mg (N = 74),28 (37.8) n (%)
same,Best response: Unknown,[4]; 600 mg (N = 74),2 (2.7) n (%)
same,Best response: Complete response,[4]; All doses (N = 147),0 n (%)
same,Best response: Not evaluable,[4]; All doses (N = 147),7 (4.8) n (%)
same,Best response: Partial response,[4]; All doses (N = 147),59 (40.1) n (%)
same,Best response: Stable disease,[4]; All doses (N = 147),61 (41.5) n (%)
same,Best response: Unknown,[4]; All doses (N = 147),2 (1.4) n (%)
same,patients with reduction in tumor size by more than 25% on at least one assessment,[4]; all 147 patients,118 patients
same,share of patients with reduction in tumor size by more than 25% on at least one assessment,[4]; all 147 patients,80%
same,patients with partial response not yet confirmed by a second assessment,[4]; [5],28 patients
same,patients with reduction in tumor size by more than 25%,[4]; [5],19 patients
same,patients with significant tumor shrinkage among stable disease,[4]; [5],47 patients
same,estimate of patients free from treatment failure,"[4]; at 12 weeks, interval censoring",80%
same,estimate of patients free from treatment failure,"[4]; at 12 weeks, without interval-censoring",81%
same,estimate of patients free from treatment failure,"[4]; at 24 weeks, interval censoring",66%
same,estimate of patients free from treatment failure,"[4]; at 24 weeks, without interval-censoring",67%
same,median time to the onset of response,[4]; entire study population,12 weeks
same,relapse among patients with confirmed response,[4]; interim analysis,No patients with confirmed response had relapsed
same,median duration of response,"[4]; interim analysis, no interval censoring",approximately 14 weeks
same,median time to treatment failure,"[4]; interval censoring, pooled population, based on only two patients, not reliable",54 weeks
